Results taken from the supplement of paper PMC10307832.

How the values were obtained:
Test in all cases: relative viability (nuclei count vs DMSO), 5 days (fraction); higher = more cells survive
Darinaparsin + Dasatinib = compound: C[As](C)SC[C@H](NC(=O)CC[C@H](N)C(=O)O)C(=O)NCC(=O)O [Darinaparsin] + Cc1nc(Nc2ncc(C(=O)Nc3c(C)cccc3Cl)s2)cc(N2CCN(CCO)CC2)n1 [Dasatinib] (partner 0.075 µM)
Outline: (§1)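 Cells from lung cancer lines were seeded into 1536-well plates and, one day later, dosed by pin tool. Treatments were either a single drug or a fixed dose of an anchor drug with five library-drug doses (not always all listed) in √10 steps. After 5 days, nuclei were stained in a one-step fixation (final 0.05% Triton X-100, 1% formaldehyde, 1 ug/ml Hoechst) and counted on 4× images, and relative viability is the treated-to-vehicle nuclei ratio, as the median of duplicate plates.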

AZ628 + Vorinostat = compound: CC1=C(C=C(C=C1)NC(=O)C2=CC(=CC=C2)C(C)(C)C#N)NC3=CC4=C(C=C3)N=CN(C4=O)C [AZ628] + O=C(CCCCCCC(=O)Nc1ccccc1)NO [Vorinostat] (partner 1 µM)
Outline: as §1

AZ628 + Trametinib = compound: CC1=C(C=C(C=C1)NC(=O)C2=CC(=CC=C2)C(C)(C)C#N)NC3=CC4=C(C=C3)N=CN(C4=O)C [AZ628] + CC(=O)Nc1cccc(-n2c(=O)n(C3CC3)c(=O)c3c(Nc4ccc(I)cc4F)n(C)c(=O)c(C)c32)c1 [Trametinib] (partner 0.02 µM)
Outline: as §1

QS11 + Alpelisib = compound: C1CC2=C(C1)C=C(C=C2)OC3=NC(=C4C(=N3)N(C=N4)CC5=CC=C(C=C5)C6=CC=CC=C6)N[C@@H](CC7=CC=CC=C7)CO [QS11] + Cc1nc(NC(=O)N2CCC[C@H]2C(N)=O)sc1-c1ccnc(C(C)(C)C(F)(F)F)c1 [Alpelisib] (partner 2 µM)
Outline: as §1

Row | Cell Line | relative viability (Darinaparsin + Dasatinib; first compound 0.08 µM) | relative viability (Darinaparsin + Dasatinib; first compound 0.8 µM) | relative viability (Darinaparsin + Dasatinib; first compound 2.53 µM) | relative viability (Darinaparsin + Dasatinib; first compound 8 µM) | relative viability (AZ628 + Vorinostat; first compound 0.08 µM) | relative viability (AZ628 + Vorinostat; first compound 0.253 µM) | relative viability (AZ628 + Vorinostat; first compound 0.8 µM) | relative viability (AZ628 + Vorinostat; first compound 2.53 µM) | relative viability (AZ628 + Vorinostat; first compound 8 µM) | relative viability (AZ628 + Trametinib; first compound 0.08 µM) | relative viability (AZ628 + Trametinib; first compound 0.253 µM) | relative viability (AZ628 + Trametinib; first compound 0.8 µM) | relative viability (AZ628 + Trametinib; first compound 2.53 µM) | relative viability (AZ628 + Trametinib; first compound 8 µM) | relative viability (QS11 + Alpelisib; first compound 0.08 µM) | relative viability (QS11 + Alpelisib; first compound 0.253 µM) | relative viability (QS11 + Alpelisib; first compound 0.8 µM) | relative viability (QS11 + Alpelisib; first compound 2.53 µM) | relative viability (QS11 + Alpelisib; first compound 8 µM)
1 | 201T | 0.571 | 0.533 | 0.66 | 0.627 | 1.06 | 1.02 | 1.08 | 1.04 | 1.08 | 0.709 | 0.693 | 0.71 | 0.667 | 0.561 | 1.02 | 1.07 | 0.92 | 1.08 | 0.949
2 | A549 | – | – | – | – | – | – | – | – | – | – | – | – | – | – | 0.912 | 0.757 | 0.691 | 0.451 | 0.215
3 | A-427 | 0.843 | 0.809 | 0.707 | 0.733 | 1.02 | 0.811 | 0.82 | 0.787 | 0.437 | 0.462 | 0.407 | 0.353 | 0.395 | 0.407 | 1.03 | 1.16 | – | 1.06 | 1.11
4 | ABC-1 | 0.56 | 0.451 | 0.572 | 0.715 | 1.26 | 0.789 | 1.27 | 0.955 | 1.07 | – | – | – | – | – | 0.89 | 1.02 | 0.932 | 0.945 | 1.21
5 | BEN | 0.305 | 0.308 | 0.31 | 0.371 | 0.615 | 0.513 | 0.571 | 0.557 | 0.589 | 1.12 | 1.01 | 0.806 | 1.02 | 0.783 | 0.772 | 1.22 | 1.12 | 1.01 | 1.29
6 | CAL-12T | 0.337 | 0.381 | 0.234 | 0.315 | 0.802 | 0.634 | 0.643 | 0.522 | 0.417 | 0.295 | 0.248 | 0.259 | 0.193 | 0.305 | 1.28 | 1.13 | 1.25 | 0.952 | 1.06
7 | COR-L23 | 0.694 | 0.493 | 0.39 | 0.497 | 0.528 | 0.426 | 0.491 | 0.473 | 0.321 | 0.292 | 0.237 | 0.271 | 0.211 | 0.271 | 0.828 | 0.665 | 0.698 | 0.589 | 0.617
8 | COR-L 105 | 0.32 | 0.31 | 0.309 | 0.277 | 0.881 | 0.886 | 0.796 | 0.794 | 0.654 | 0.435 | 0.401 | 0.382 | 0.352 | 0.36 | 0.931 | 0.946 | 1.13 | 0.745 | 0.771
